Molecules are shown by their SMILES. Several values for one entry are separate records, joined by “and”; a condition that tells them apart may be missing. Equal values may be shown once.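 A five-concentration, 48-hour dose response in 96-well plates underlies each endpoint, interpolated linearly between surrounding concentrations. The concentration for 50% growth inhibition is given as GI50. The concentration for full growth arrest is given as TGI.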

TGI and GI50 data for 16 compounds are collected here from PubChem BioAssay (NCI).

Test systems include HS 578T breast; IGROV1 ovarian; NCI-H226 lung; OVCAR-5 ovarian; SF-295 CNS; TK-10 renal; HL-60(TB) leukemia; RPMI-8226 leukemia; SK-MEL-5 melanoma; T-47D breast.
What all share (experiment): DTP human tumour cell line panel, 48 h

For the compound `S=C(/N=c1\sc(Nc2ccc(Cl)cc2)nc2sc3c(c12)CCN(N1CCc2c(sc4nc(Nc5ccc(Cl)cc5)s/c(=N\C(=S)Nc5ccc(Cl)cc5)c24)C1)C3)Nc1ccc(Cl)cc1`, the TGI with HS 578T breast is above 100 µM; with IGROV1 ovarian it was above 100 µM; in the assay on NCI-H226 lung it was above 100 µM; in the assay with OVCAR-5 ovarian, 54.2 µM; with SF-295 CNS, above 100 µM; in the assay with TK-10 renal, above 100 µM.

Regarding `CCOC(=O)c1c(-c2ccccc2)c(-c2ccccc2)cn1C`, the TGI in the assay with HL-60(TB) leukemia, with HS 578T breast, in the assay on IGROV1 ovarian, with NCI-H226 lung, with OVCAR-5 ovarian and in the assay on SF-295 CNS was above 10 µM throughout. The compound also gave a TGI in the assay with TK-10 renal above 10 µM.

On to `CCC1=CC2CN3Cn4c(c(COCc5c6n(c7ccccc57)CN5CC7C=C(CC)C5C6(C(=O)OC)C7)c5ccccc54)C(C(=O)OC)(C2)C13`, for which the TGI in the assay on HL-60(TB) leukemia, in the assay with IGROV1 ovarian, in the assay on NCI-H226 lung, in the assay on RPMI-8226 leukemia, in the assay with SF-295 CNS and in the assay with SK-MEL-5 melanoma was above 100 µM each time. The compound also came in with a TGI in the assay on TK-10 renal above 100 µM.

Take `NCCCN1CCN(CCCNc2ccc3nnn4c5ccccc5c(=O)c2c34)CC1`: the TGI was above 100 µM in the assay on HL-60(TB) leukemia; 81.8 µM with HS 578T breast; 33.9 µM with IGROV1 ovarian; above 100 µM with OVCAR-5 ovarian; above 100 µM in the assay with RPMI-8226 leukemia; 45.2 µM with SF-295 CNS. The values for the TGI in the assay with SK-MEL-5 melanoma, with T-47D breast and in the assay on TK-10 renal were 32.1 µM, above 100 µM and above 100 µM, respectively.

Consider `CC(C)=CCC/C(C)=C/COC(C)(C)C1=CCC(C)CC1` (stereo not given) (tested in a mixture with another compound), for which the TGI in the assay with HL-60(TB) leukemia is 50.9 µM; in the assay with HS 578T breast, above 100 µM; with IGROV1 ovarian, above 100 µM; in the assay with OVCAR-5 ovarian, above 100 µM; in the assay with RPMI-8226 leukemia, above 100 µM; in the assay on SF-295 CNS, above 100 µM. Further, the TGI in the assay on SK-MEL-5 melanoma and in the assay on TK-10 renal was above 100 µM in each case.

Regarding `CCN1CCCC(NCc2c3ccccc3c(CNC3CCCN(CC)C3)c3ccccc23)C1` (stereo not given), the TGI was determined as 22.7 µM in the assay on HL-60(TB) leukemia; 55.7 µM in the assay on IGROV1 ovarian; 30 µM in the assay on NCI-H226 lung; 19.8 µM in the assay with OVCAR-5 ovarian; 54.3 µM with RPMI-8226 leukemia; 14.7 µM in the assay with SF-295 CNS. In the assay with SK-MEL-5 melanoma, this compound yielded a TGI of 27.4 µM.

For `CSC(=Nc1ccccc1)N(c1ccccc1)c1nc(=[N+](C)C)ss1`, the total growth inhibition concentration (TGI) with HL-60(TB) leukemia was found to be 3.2 µM; in the assay on IGROV1 ovarian it was 12.8 µM; in the assay with OVCAR-5 ovarian it was 28.6 µM; with RPMI-8226 leukemia, 3.14 µM; in the assay on SF-295 CNS it was 25.1 µM; in the assay on SK-MEL-5 melanoma, 5.15 µM. In the assay with TK-10 renal, this compound registered a TGI of 27.7 µM.

Regarding `O=[N+]([O-])c1ccc(/C=C/c2cc(-c3ccccc3)nc3ccc4ccccc4c23)cc1`, the TGI in the assay with HL-60(TB) leukemia, in the assay on HS 578T breast, in the assay on IGROV1 ovarian, in the assay with NCI-H226 lung, in the assay with OVCAR-5 ovarian and in the assay with RPMI-8226 leukemia was above 100 µM throughout. Moreover, the TGI with SF-295 CNS, in the assay with SK-MEL-5 melanoma and in the assay with TK-10 renal was above 100 µM in each case.

Turning to `N=C(N)c1ccc(-c2ccc(-c3cccs3)s2)cc1`, the GI50 in the assay with HS 578T breast is 2.99 µM; in the assay with IGROV1 ovarian, 1.84 µM; in the assay on NCI-H226 lung, 4.03 µM; with OVCAR-5 ovarian it was 1.17 µM; in the assay on RPMI-8226 leukemia it was 0.267 µM; in the assay with SK-MEL-5 melanoma it was 1.6 µM. Besides, in the assay with TK-10 renal, the GI50 was 1.4 µM. Further, the TGI in the assay with HS 578T breast stood at 9.62 µM; in the assay on IGROV1 ovarian, 3.53 µM; with NCI-H226 lung, 33 µM; with OVCAR-5 ovarian, 2.68 µM; in the assay with RPMI-8226 leukemia it was 2.12 µM; in the assay with SK-MEL-5 melanoma, 2.99 µM. In addition, the TGI in the assay with TK-10 renal was determined as 2.91 µM.

For `COc1c(O)c2c3c(c(C)cc(O)c3c1O)C(=O)C(O)(C(C)(C)C(C)=O)C2=O` (stereo not given), the TGI in the assay with HL-60(TB) leukemia is above 100 µM; with IGROV1 ovarian, above 100 µM; in the assay on NCI-H226 lung, 34.6 µM; in the assay with OVCAR-5 ovarian, above 100 µM; in the assay on RPMI-8226 leukemia, above 100 µM; in the assay on SF-295 CNS it was 71.2 µM and > 100 µM. Further, the TGI in the assay with SK-MEL-5 melanoma and in the assay with TK-10 renal was above 100 µM in each case. For the same compound, in the assay on SF-295 CNS, the GI50 was 25.2 µM and > 100 µM.

For the compound `O=C1NCC(NC(=O)C(F)(F)F)c2c(Br)sc(Br)c21` (stereo not given), the concentration for total growth inhibition (TGI) in the assay on IGROV1 ovarian, in the assay on NCI-H226 lung, with OVCAR-5 ovarian, in the assay on RPMI-8226 leukemia, in the assay with SF-295 CNS and in the assay with SK-MEL-5 melanoma was above 100 µM each time. The TGI in the assay with T-47D breast and in the assay on TK-10 renal was above 100 µM throughout.

On to `C=Cc1ccc(C)[n+](C[Si](C)(C)O[Si](C)(C)C[n+]2cc(C=C)ccc2C)c1`, for which the TGI in the assay on HL-60(TB) leukemia, in the assay on IGROV1 ovarian, in the assay with NCI-H226 lung, in the assay on OVCAR-5 ovarian, in the assay on RPMI-8226 leukemia and in the assay on SF-295 CNS was above 100 µM each time. For the same compound, the TGI with SK-MEL-5 melanoma and in the assay with TK-10 renal was above 100 µM throughout.

Regarding `O=C(NC(COC(=O)C(Cc1ccccc1)NC(=O)c1ccccc1)Cc1ccccc1)c1ccccc1` (stereo not given), the concentration for total growth inhibition (TGI) in the assay on HL-60(TB) leukemia, in the assay with HS 578T breast, in the assay on IGROV1 ovarian, in the assay with OVCAR-5 ovarian, in the assay with RPMI-8226 leukemia and in the assay with SF-295 CNS was above 50 µM in each case. Besides, the TGI in the assay on TK-10 renal is above 50 µM.

On to `COc1ccc(CC2c3c(cc(OC)c(OC)c3OC)CCN2C)cc1OC` (stereo not given), for which the concentration for total growth inhibition (TGI) in the assay with OVCAR-5 ovarian, in the assay with RPMI-8226 leukemia, with SF-295 CNS, in the assay on SK-MEL-5 melanoma and in the assay on TK-10 renal was above 100 µM in each case.

For the compound `CC1=NN(C(=O)CC(=O)Nc2ccccc2F)C(=O)C1N=Nc1ccccc1[N+](=O)[O-]` (stereo not given), the TGI was above 100 µM in the assay with IGROV1 ovarian; above 100 µM in the assay with NCI-H226 lung; above 100 µM in the assay on OVCAR-5 ovarian; above 100 µM in the assay on RPMI-8226 leukemia; above 100 µM in the assay with SF-295 CNS; 33.5 µM with SK-MEL-5 melanoma. This compound came in with a TGI in the assay on TK-10 renal above 100 µM.

On to `CC12CCC3C(CCC4CC(OC(=O)Cc5ccc(N(CCCl)CCCl)cc5)CCC43C)C1CCC(=O)N2` (stereo not given), for which the TGI in the assay on HL-60(TB) leukemia was 22 µM; in the assay with IGROV1 ovarian, 31 µM; in the assay with NCI-H226 lung it was 30.1 µM; in the assay with RPMI-8226 leukemia it was 35.3 µM; with SF-295 CNS, 30.3 µM; in the assay on SK-MEL-5 melanoma, 33.3 µM. Also, the TGI in the assay with TK-10 renal turned out to be 35.5 µM.
